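Assay format: 96-well plates, 48-hour exposure. GI50 marks 50% less growth.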 The source made the active and inactive calls. Rule as the data show it: active = GI50 up to about 1.1 µM and inactive = higher.
Legend:
Test in all cases: NCI-60 cell line screen, 48 h
A549 = test system: A549
CAKI-1 = test system: CAKI-1
HCC 2998 = test system: HCC 2998
HCT-116 = test system: HCT-116
KM12 = test system: KM12
MCF7 = test system: MCF7
MOLT-4 = test system: MOLT-4
NCI-H23 = test system: NCI-H23
NCI-H460 = test system: NCI-H460
OVCAR-3 = test system: OVCAR-3
OVCAR-4 = test system: OVCAR-4
PC-3 = test system: PC-3
RPMI-8226 = test system: RPMI-8226
SF-268 = test system: SF-268
SK-MEL-28 = test system: SK-MEL-28
SK-MEL-2 = test system: SK-MEL-2
SR = test system: SR
SW-620 = test system: SW-620
UACC-257 = test system: UACC-257
BT-549 = test system: BT-549

SMILES | GI50 (A549) | GI50 (CAKI-1) | GI50 (HCC 2998) | GI50 (HCT-116) | GI50 (KM12) | GI50 (MCF7) | GI50 (MOLT-4) | GI50 (NCI-H23) | GI50 (NCI-H460) | GI50 (OVCAR-3) | GI50 (OVCAR-4) | GI50 (PC-3) | GI50 (RPMI-8226) | GI50 (SF-268) | GI50 (SK-MEL-28) | GI50 (SK-MEL-2) | GI50 (SR) | GI50 (SW-620) | GI50 (UACC-257) | GI50 (BT-549)
C=C(Br)CN(CC(=C)Br)C(C)=O | > 100 µM (inactive) | > 100 µM (inactive) | > 100 µM (inactive) | > 100 µM (inactive) | > 100 µM (inactive) | > 100 µM (inactive) | > 100 µM (inactive) | > 100 µM (inactive) | > 100 µM (inactive) | > 100 µM (inactive) | > 100 µM (inactive) | 81.8 µM (inactive) | > 100 µM (inactive) | > 100 µM (inactive) | > 100 µM (inactive) | > 100 µM (inactive) | > 100 µM (inactive) | > 100 µM (inactive) | > 100 µM (inactive) | –
Cn1ncc2c(Nc3cccc(Cl)c3)nc(Nc3cccc(Cl)c3)nc21 | 8.11 µM (inactive) | 7.6 µM (inactive) | 8.93 µM (inactive) | 11.4 µM (inactive) | 4.9 µM (inactive) | 4.68 µM (inactive) | 4.68 µM (inactive) | 16.3 µM (inactive) | – | 18.5 µM (inactive) | 11.9 µM (inactive) | 8.24 µM (inactive) | 3.61 µM (inactive) | 14.1 µM (inactive) | 14.8 µM (inactive) | 14.9 µM (inactive) | – | 11.2 µM (inactive) | 8.73 µM (inactive) | 21.8 µM (inactive)
COC1/C=C(C)/C=C/C(C)/C=C/C(=O)OC(/C(C)=C/C=C(\C)CNC(=O)[C@H](CO)NC=O)C(C)/C=C/C=C/C(OC)CC/C=C(C)/C=C/C1 (some centres undefined) | 0.0307 µM (active) | 0.0706 µM (active) | – | 0.0318 µM (active) | 0.0195 µM (active) | 0.052 µM (active) | 0.0206 µM (active) | 0.0497 µM (active) | 0.0316 µM (active) | 0.039 µM (active) | 0.491 µM (active) | 0.0264 µM (active) | 0.0215 µM (active) | 0.113 µM (active) | > 0.283 µM (active) | 0.0341 µM (active) | – | 0.0469 µM (active) | 0.0264 µM (active) | 0.0581 µM (active)
CN(C)Cc1cc(C(=O)/C=C/c2ccc(F)cc2)cc(CN(C)C)c1O | 26.6 µM (inactive) | 18.7 µM (inactive) | > 10 µM (inactive) | 13.4 µM (inactive) | 18.9 µM (inactive) | 16.2 µM (inactive) | 19.5 µM (inactive) | 34.4 µM (inactive) | 10.5 µM (inactive) | 9.23 µM (inactive) | 41.8 µM (inactive) | 27.5 µM (inactive) | 22.5 µM (inactive) | 22.8 µM (inactive) | 29.2 µM (inactive) | – | 20.6 µM (inactive) | 20.4 µM (inactive) | 13.4 µM (inactive) | –
Cc1c(Cl)c(S(N)(=O)=O)cc(S(N)(=O)=O)c1NC(=O)c1ccc(Cl)cc1 | > 100 µM (inactive) | > 100 µM (inactive) | > 100 µM (inactive) | > 100 µM (inactive) | > 100 µM (inactive) | > 100 µM (inactive) | > 100 µM (inactive) | > 100 µM (inactive) | > 100 µM (inactive) | > 100 µM (inactive) | > 100 µM (inactive) | > 100 µM (inactive) | > 100 µM (inactive) | > 100 µM (inactive) | > 100 µM (inactive) | – | – | > 100 µM (inactive) | > 100 µM (inactive) | > 100 µM (inactive)
Oc1ccc2ccccc2c1OCc1nnc(CCCCCCCCc2nnc(COc3c(O)ccc4ccccc34)o2)o1 | > 100 µM (inactive) | 67 µM (inactive) | > 100 µM (inactive) | 20.7 µM (inactive) | 25.2 µM (inactive) | 59.2 µM (inactive) | 92.3 µM (inactive) | > 100 µM (inactive) | > 100 µM (inactive) | – | > 100 µM (inactive) | > 100 µM (inactive) | > 100 µM (inactive) | 99.3 µM (inactive) | > 100 µM (inactive) | > 100 µM (inactive) | – | > 100 µM (inactive) | > 100 µM (inactive) | > 100 µM (inactive)
c1cc2c(ncc3cscc32)s1 | > 100 µM (inactive) | > 72.4 µM (inactive) | > 100 µM (inactive) | > 31.6 µM (inactive) | > 100 µM (inactive) | > 100 µM (inactive) | > 100 µM (inactive) | > 68.4 µM (inactive) | > 100 µM (inactive) | > 100 µM (inactive) | > 100 µM (inactive) | > 100 µM (inactive) | > 100 µM (inactive) | > 100 µM (inactive) | > 100 µM (inactive) | > 100 µM (inactive) | > 100 µM (inactive) | > 100 µM (inactive) | > 100 µM (inactive) | –
CC(=O)C1(/N=N/c2ccc(S(N)(=O)=O)cc2)CCOC1=O (centres undefined) | > 100 µM (inactive) | > 100 µM (inactive) | – | > 100 µM (inactive) | > 100 µM (inactive) | > 100 µM (inactive) | – | > 100 µM (inactive) | > 100 µM (inactive) | > 100 µM (inactive) | > 100 µM (inactive) | > 100 µM (inactive) | – | > 100 µM (inactive) | > 100 µM (inactive) | > 100 µM (inactive) | – | > 100 µM (inactive) | > 100 µM (inactive) | > 100 µM (inactive)
CN(C)CCCN1C(=O)N(CCCN(C)C)c2c3cc(O)ccc3nc3c([N+](=O)[O-])ccc1c23 | 13.6 µM (inactive) | 23.3 µM (inactive) | 11.7 µM (inactive) | 14.1 µM (inactive) | 14.9 µM (inactive) | 11.3 µM (inactive) | – | 13 µM (inactive) | 15.6 µM (inactive) | 26.1 µM (inactive) | 2.29 µM (inactive) | 8.24 µM (inactive) | 32.6 µM (inactive) | 10.3 µM (inactive) | 43.3 µM (inactive) | 15.6 µM (inactive) | – | 16 µM (inactive) | 30.8 µM (inactive) | 17.6 µM (inactive)
CCN1CCCc2cc3c(C(F)(F)F)cc(=O)oc3cc21 | > 100 µM (inactive) | 50.8 µM (inactive) | > 100 µM (inactive) | 91.8 µM (inactive) | > 100 µM (inactive) | 56.2 µM (inactive) | 42.4 µM (inactive) | 57.4 µM (inactive) | 82.8 µM (inactive) | 33 µM (inactive) | > 100 µM (inactive) | 20.7 µM (inactive) | – | > 100 µM (inactive) | > 100 µM (inactive) | > 100 µM (inactive) | – | > 100 µM (inactive) | 42.1 µM (inactive) | 58.2 µM (inactive)
CC(C)C1=CC2=C(C(=O)C1=O)C13CCCC(C)(C)C1CC2OC3=O (centres undefined) | 43.5 µM (inactive) | 17.9 µM (inactive) | 21.3 µM (inactive) | 18.3 µM (inactive) | 31.8 µM (inactive) | 22.3 µM (inactive) | 6.11 µM (inactive) | 26.8 µM (inactive) | 26.2 µM (inactive) | 16.7 µM (inactive) | 18.6 µM (inactive) | 24.2 µM (inactive) | 8.18 µM (inactive) | 22 µM (inactive) | 14.1 µM (inactive) | 21.7 µM (inactive) | – | 14.5 µM (inactive) | 23.9 µM (inactive) | 16.8 µM (inactive)
COc1cc(/N=C\N(C)C)c2ncccc2c1 | 79.6 µM (inactive) | 86.3 µM (inactive) | – | 35.2 µM (inactive) | – | 48.5 µM (inactive) | 35.7 µM (inactive) | > 100 µM (inactive) | – | 56.6 µM (inactive) | > 100 µM (inactive) | 90.6 µM (inactive) | 46.5 µM (inactive) | 66.1 µM (inactive) | > 100 µM (inactive) | 46.2 µM (inactive) | 1.62 µM (inactive) | – | > 100 µM (inactive) | 37.1 µM (inactive)
C/C(=N\Nc1nc2ccccc2s1)c1ncccn1 | 0.141 µM (active) | < 0.01 µM (active) | 0.953 µM (active) | < 0.0193 µM (active) | 0.128 µM (active) | 0.0164 µM (active) | < 0.01 µM (active) | 0.0614 µM (active) | 0.04 µM (active) | < 0.0215 µM (active) | – | 0.118 µM (active) | 0.0775 µM (active) | 0.0345 µM (active) | 0.179 µM (active) | 0.92 µM (active) | – | < 0.0154 µM (active) | < 0.0205 µM (active) | 0.346 µM (active)
CC(ON1[C@](C)(c2ccccc2)CC[C@@]1(C)c1ccccc1)c1ccccc1 (some centres undefined) | 30.9 µM (inactive) | 37.8 µM (inactive) | 20.9 µM (inactive) | 25.4 µM (inactive) | 29.4 µM (inactive) | – | 16.2 µM (inactive) | 40 µM (inactive) | 36.2 µM (inactive) | 38.4 µM (inactive) | 68.4 µM (inactive) | 39.2 µM (inactive) | 22.4 µM (inactive) | 58.5 µM (inactive) | 53.2 µM (inactive) | 20 µM (inactive) | – | 37.9 µM (inactive) | 28.3 µM (inactive) | 13.4 µM (inactive)
Cc1cc(C)c2c(=O)n(CN3CCN(c4ccccc4)CC3)sc2n1 | 33.8 µM (inactive) | 21 µM (inactive) | 71.3 µM (inactive) | 17.7 µM (inactive) | > 100 µM (inactive) | 29.7 µM (inactive) | 20.1 µM (inactive) | 29.2 µM (inactive) | 67.9 µM (inactive) | 36.6 µM (inactive) | 54 µM (inactive) | 19.4 µM (inactive) | – | > 100 µM (inactive) | 36.6 µM (inactive) | 17.2 µM (inactive) | – | 29.2 µM (inactive) | 46.6 µM (inactive) | 63.2 µM (inactive)

Reference: ChEMBL document CHEMBL1201862, “PubChem BioAssay data set” (2004)
